# Where a name gives a salt, the structure may show the parent alone.
# Columns and labels:
# [1] = biological target: T1, human FSH receptor (Homo sapiens, UniProt P23945); assay: Follicle-Stimulating Hormone Receptor-Dependent Cre-Luciferase Reporter Gene Assay (CHO FSH-R 6CRE-Luc cells); format: cell-based; details: for IC50: dose-response format, in presence of EC50 of purified human FSH
# T1 construct: host or cells: CHO-K1 (CHO FSH-R 6CRE-Luc, 1D7 cells)
# T1 sequence (P23945 18-695): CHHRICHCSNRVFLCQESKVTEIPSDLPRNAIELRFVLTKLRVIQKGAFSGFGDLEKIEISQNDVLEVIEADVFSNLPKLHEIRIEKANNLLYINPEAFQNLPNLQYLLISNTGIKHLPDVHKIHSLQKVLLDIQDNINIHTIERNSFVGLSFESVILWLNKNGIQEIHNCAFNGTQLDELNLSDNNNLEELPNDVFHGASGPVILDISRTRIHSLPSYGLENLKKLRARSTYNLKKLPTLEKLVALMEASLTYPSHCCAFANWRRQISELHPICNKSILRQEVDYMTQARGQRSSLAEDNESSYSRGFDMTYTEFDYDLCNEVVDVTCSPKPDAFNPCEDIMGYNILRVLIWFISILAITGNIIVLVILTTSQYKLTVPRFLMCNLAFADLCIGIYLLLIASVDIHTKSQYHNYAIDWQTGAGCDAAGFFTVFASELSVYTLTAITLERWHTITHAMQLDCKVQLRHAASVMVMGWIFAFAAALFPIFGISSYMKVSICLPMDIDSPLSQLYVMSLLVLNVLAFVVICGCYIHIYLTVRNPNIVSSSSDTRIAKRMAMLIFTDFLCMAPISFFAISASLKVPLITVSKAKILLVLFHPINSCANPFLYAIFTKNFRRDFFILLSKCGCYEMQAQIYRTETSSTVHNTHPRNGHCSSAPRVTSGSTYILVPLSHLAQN
# Description: Follicle-Stimulating Hormone Receptor-Dependent Cre-Luciferase Reporter Gene Assay for the Identification of Follicle-Stimulating Hormone (FSH) Antagonists
# A Chinese hamster ovarian cell line that stably produces the human FSH receptor and a luciferase reporter gene regulated by cAMP response elements was used to identify and determine the relative potencies of human FSH receptor antagonists. See for example, Kelton, C. A., et al. Mol. Cell. Endocrinol. 89:141-151 (1992), Tilly, J. L., et al. Endocrinology 131:799-806(1992), and George, S. E., et al. J. Biomol. Screening 2:235-240 (1997).
# Compound Vehicle: Stock compounds were solubilized in an appropriate vehicle, e.g., phosphate buffered saline (PBS) or dimethyl sulfoxide (DMSO), at 30 mM. The compounds were subsequently diluted in DMSO to working dilutions of 1 and 20 or 30 mM for 2-dose testing format and 1 μM-10 mM for dose-response format. The DMSO dilutions were diluted 500-fold in sterile growth medium [D-MEM/F-12 (GIBCO/BRL; Grand Island, NY) containing 15 mM HEPES, 2 mM 1-glutamine, pyridoxine hydrochloride, phenol red and 5% FetalClone® II (HyClone Laboratories, Inc; Logan, Utah), 0.2% DMSO, 100 units penicillin G/ml, and 100 μg streptomycin sulfate/ml (GIBCO/BRL)]. The concentration of the vehicle in each of the compound dilutions was the same.
# Positive Controls: Purified human FSH (>98%) was purchased from Cortex Biochem, Inc. (San Leandro, Calif.) and 3-[(2S*,5R*)-5-{[2-(1H-Indol-3-yl)-ethylcarbamoyl]-methyl}-4-oxo-2-(5-phenylethynyl-thiophen-2-yl)-thiazolidin-3-yl]-benzamide (an FSH-R thiazolidinone antagonist) was prepared by processes described by R. A. Scheuerman et al. in U.S. Pat. No. 6,426,357 (Affymax).
# The CHO FSH-R 6CRE-Luc cells (1D7 cells) were obtained from Affymax (Palo Alto, Calif.). These Chinese hamster ovary cells (CHO-K1) were engineered genetically to stably express the recombinant human FSH receptor gene and a luciferase reporter gene under the regulation of 6 copies of a cAMP response element. The cells were plated one day prior to treatment into 96-well white opaque plates at a density of 50,000 cells/100 μl/well in growth medium. On the day of treatment, the growth medium was removed from the wells by aspiration and 50 μl of fresh growth medium was added to each well. The cells were incubated at 37° C. in a humidified incubator with 5% CO2/95% air.
# The treated cells were incubated for 4 hours at 37° C. in a humidified incubator with 5% CO2/95% air. At the end of the incubation period, luciferase activity was measured by chemiluminescence using a commercially available kit (LucScreen, Tropix, Inc., Bedford, Mass.) according to the manufacturer's specifications, except that Buffer 1 and Buffer 2 were mixed together in equal proportion prior to the addition of 100 μl of the combined reagents to each well. Chemiluminescence was detected using a luminometer (EG & G Berthold Microlumat LB 96 P, Wallac, Gaithersburg, Md.) with chemiluminescence measured for 1 sec/well. Background luminescence was measured for each well prior to the addition of the LucScreen reagent.
# In the 96-well 2-dose format, each compound was tested in duplicate at each dose. […] One plate was used to test a maximum of 22 compounds.
# The EC50 of purified human FSH alone was tested in triplicate with each test compound. The doses chosen to test each compound were extrapolated from the initial 2-dose screening process. Along with the test compounds, purified human FSH also was tested in a dose response (0.03, 0.1, 0.3, 1, 3, 10, and 30 ng/ml) for a positive control and quality control. One plate was used for 3 test compounds and the FSH positive control.
# Luciferase activity is expressed as relative light units/sec/well. Luciferase activity in antagonist was compared to the appropriate negative and positive controls. For 2-dose testing, results are reported as luciferase activity and are expressed as percent inhibition of the response obtained from the EC50 of FSH.
# [2] = 2-dose format, concentration in parentheses 30 μM, inhibition of the response to EC50 of FSH
Structure (SMILES),IC50 [1] [µM],melting point [°C],"inhibition at 30 µM [1, 2] [%]","CRE % inhibition (μM) [1, 2]"
"COc1cc(C(=O)N2Cc3ccc(C(=O)NCCc4cccc(Cl)c4)n3Cc3ccccc32)ccc1-c1ccccc1C [Example 51, N-[2-(3-CHLOROPHENYLETHYL]-10-[(2-METHOXY-2′-METHYL-1,1′-BIPHENYL-4-YL)CARBONYL]-10,11-DIHYDRO-5H-PYRROLO[2,1-C][1,4]BENZODIAZEPINE-3-CARBOXAMIDE]",> 30,–,–,–
"COc1ccc(CNC(=O)c2ccc3n2Cc2ccccc2N(C(=O)c2ccc(-c4ccccc4C)c(OC)c2)C3)cc1 [Example 36, N-(4-METHOXYBENZYL)-10-[(2-METHOXY-2′-METHYL-1,1′-BIPHENYL-4-YL)CARBONYL]-10,11-DIHYDRO-5H-PYRROLO[2,1-C][1,4]BENZODIAZEPINE-3-CARBOXAMIDE]",–,178 to 179,60,–
COc1ccc(CCNC(=O)c2ccc3n2Cc2ccccc2N(C(=O)c2ccc(-c4ccccc4C)c(C)c2)C3)cc1 [Example 30],–,170 to 172,62,–
Cc1ccccc1-c1ccc(C(=O)N2Cc3ccc(C(=O)NCc4cccc(CN)c4)n3Cc3ccccc32)cc1C [Example 12],11.9,–,–,–
"COc1cc(C(=O)N2Cc3ccc(C(=O)NCc4ccc(C)cc4C)n3Cc3ccccc32)ccc1-c1ccccc1C [Example 46, N-(2,4-DIMETHYLBENZYL)-10-[(2-METHOXY-2′-METHYL-1,1′-BIPHENYL-4-YL)CARBONYL]-10,11-DIHYDRO-5H-PYRROLO[2,1-C][1,4]BENZODIAZEPINE-3-CARBOXAMIDE]",–,161 to 162,44,–
Cc1ccccc1-c1ccc(C(=O)N2Cc3ccc(C(=O)NC(C)c4ccccc4)n3Cc3ccccc32)cc1C (stereo not shown) [Example 13],8.2,118 to 124,–,–
Cc1ccc(CCNC(=O)c2ccc3n2Cc2ccccc2N(C(=O)c2ccc(-c4ccccc4C)c(C)c2)C3)cc1 [Example 29],–,161 to 163,52,–
"COc1ccccc1-c1ccc(C(=O)N2Cc3ccc(C(=O)NCc4c(Cl)cccc4Oc4ccccc4)n3Cc3ccccc32)cc1 [Example 3, N-(2-CHLORO-6-PHENOXYBENZYL)-10-[(2′-METHOXY-1,1′-BIPHENYL-4-YL)CARBONYL]-10,11-DIHYDRO-5H-PYRROLO[2,1-C][1,4]BENZODIAZEPINE-3-CARBOXAMIDE]",–,–,8,–
Cc1ccccc1-c1ccc(C(=O)N2Cc3ccc(C(=O)NCc4ccc(O)cc4)n3Cc3ccccc32)cc1C [Example 9],–,–,37,–
Cc1cc(Cl)ccc1OCC(=O)N1Cc2ccc(C(=O)NCc3ccc4c(c3)OCO4)n2Cc2ccccc21 [Example 76],–,–,–,15(30) %
Cc1ccccc1-c1ccc(C(=O)N2Cc3ccc(C(=O)NCc4ccc(CN)cc4)n3Cc3ccccc32)cc1C [Example 11],14.9,–,–,–
Cc1ccccc1-c1ccc(C(=O)N2Cc3ccc(C(=O)NCCc4ccc5c(c4)OCO5)n3Cc3ccccc32)cc1C (as salt: hydrochloride) [Example 33],–,154 to 157,–,–

# Second part, led by results:
IC50 [1] [µM],melting point [°C],"inhibition at 30 µM [1, 2] [%]",Structure (SMILES),"CRE % inhibition (μM) [1, 2]"
–,159 to 161,13,Cc1cc(-c2ccccc2C)ccc1NC(=O)c1ccc2n1Cc1ccccc1N(C(=O)COc1ccc(Cl)cc1)C2 [Example 79],–
> 30,129 to 132,–,COc1cc(C(=O)N2Cc3ccc(C(=O)NCC(c4ccccc4)c4ccccc4)n3Cc3ccccc32)ccc1-c1ccccc1C [Example 50],–
–,178 to 179,–,"COc1cc(C(=O)N2Cc3ccc(C(=O)NCCc4ccc5c(c4)OCO5)n3Cc3ccccc32)ccc1-c1ccccc1C [Example 62, N-[2-(1,3-BENZODIOXOL-5-YL)ETHYL]-10-[(2-METHOXY-2′-METHYL-1,1′-BIPHENYL-4-YL)CARBONYL]-10,11-DIHYDRO-5H-PYRROLO[2,1-C][1,4]BENZODIAZEPINE-3-CARBOXAMIDE]",–
–,191,46,"COc1cc(C(=O)N2Cc3ccc(C(=O)NCCCc4ccccc4)n3Cc3ccccc32)ccc1-c1ccccc1C [Example 54, 10-[(2-METHOXY-2′-METHYL-1,1′-BIPHENYL-4-YL)CARBONYL]-N-(3-PHENYLPROPYL)-10,11-DIHYDRO-5H-PYRROLO[2,1-C][1,4]BENZODIAZEPINE-3-CARBOXAMIDE]",–
> 30,213 to 217,–,"COC(=O)c1cc(NC(=O)c2ccc3n2Cc2ccccc2N(C(=O)COc2ccc(Cl)cc2)C3)cc(C(=O)OC)c1 [Example 98, DIMETHYL 5-[({10-[(4-CHLOROPHENOXY)ACETYL]-10,11-DIHYDRO-5H-PYRROLO[2,1-C][1,4]BENZODIAZEPIN-3-YL}CARBONYL)AMINO]ISOPHTHALATE]",–
> 30,138 to 147,–,"COc1ccccc1-c1ccc(C(=O)N2Cc3ccc(C(=O)NCCc4ccc(O)cc4)n3Cc3ccccc32)cc1C [Example 66, N-[2-(4-HYDROXYPHENYL)ETHYL]-10-[(2′-METHOXY-2-METHYL-1,1′-BIPHENYL-4-YL)CARBONYL]-10,11-DIHYDRO-5H-PYRROLO[2,1-C][1,4]BENZODIAZEPINE-3-CARBOXAMIDE]",–
> 30,199 to 200,–,"O=C(NC1CCCc2ccccc21)c1ccc2n1Cc1ccccc1N(C(=O)COc1ccc(Cl)cc1)C2 (stereo not shown) [Example 94, 10-[(4-CHLOROPHENOXY)ACETYL]-N-(1,2,3,4-TETRAHYDRONAPHTHALEN-1-YL)-10,11-DIHYDRO-5H-PYRROLO[2,1-C][1,4]BENZODIAZEPINE-3-CARBOXAMIDE]",–
> 30,199 to 201,–,"CCOC(=O)c1ccc(NC(=O)c2ccc3n2Cc2ccccc2N(C(=O)COc2ccc(Cl)cc2)C3)cc1 [Example 96, ETHYL 4-[({10-[(4-CHLOROPHENOXY)ACETYL]-10,11-DIHYDRO-5H-PYRROLO[2,1-C][1,4]BENZODIAZEPIN-3-YL}CARBONYL)AMINO]BENZOATE]",–
> 30,150,–,"O=C(NCc1ccc(Cl)c(Cl)c1)c1ccc2n1Cc1ccccc1N(C(=O)CSc1ccc(Br)cc1)C2 [Example 81, 10-{[(4-BROMOPHENYL)THIO]ACETYL}-N-(3,4-DICHLOROBENZYL)-10,11-DIHYDRO-5H-PYRROLO[2,1-C][1,4]BENZODIAZEPINE-3-CARBOXAMIDE]",–
–,168 to 169,21,O=C(NCc1ccc2c(c1)OCO2)c1ccc2n1Cc1ccccc1N(C(=O)COc1ccc(Cl)cc1)C2 [Example 69],–
–,129 to 131,–,Cc1ccccc1-c1ccc(C(=O)N2Cc3ccc(C(=O)NCCCCc4ccccc4)n3Cc3ccccc32)cc1C [Example 56],–

# Source: US7691848B2, “Pyrrolobenzodiazepine arylcarboxamides and derivatives thereof as follicle-stimulating hormone receptor antagonists” (Wyeth, priority 2005, dated 2010)
